Measurements: patent US7842825B2, “Biaryloxymethylarenecarboxylic acids as glycogen synthase activator” (Hoffmann-La Roche Inc., priority 2003, dated 2010)

The molecules below were run on glycogen synthase (assay: Glycogen Synthase (GS) Assay, in vitro activation of glycogen synthase). Conditions: compound concentration needed to stimulate 200% of the enzyme activity; coupled pyruvate kinase/lactate dehydrogenase assay, absorbance at 340 nm, 37° C.
Type: biochemical
Procedure: Twelve μl per well of substrate solution containing glycogen (4.32 mg/ml), 21.6 mM UDP-glucose, 21.6 mM phospho(enol)pyruvate and 2.7 mM NADH in 30 mM glycylglycine, pH 7.3 buffer is added into a polystyrene 384-well assay plate (BD Biosciences). Compound solution (8 μl/well) at various concentrations (0-57 μM) in 30 mM glycylglycine, pH 7.3, 40 mM KCl, 20 mM MgCl2 plus 9.2% DMSO are added to the assay plate (columns 5-24). Enzyme solution (12 μl/well) containing glycogen synthase (16.88 μg/ml), pyruvate kinase (0.27 mg/ml), lactate dehydrogenase (0.27 mg/ml) in 50 mM Tris-HCl, pH 8.0, 27 mM DTT and bovine serum albumin (BSA, 0.2 mg/ml) is added to the assay plate (columns 3-24). As a blank control, enzyme solution without glycogen synthase is added into the top half wells of columns 1-2. To the bottom half wells of columns 1-2 are added a known activator, glucose 6-phosphate (18.9 mM) in addition to the enzyme solution. The reaction mixture is incubated at 37° C. The assay plate is then read for absorbance at 340 nm on a Tecan Ultra reader every 3 minutes up to a total of 30 minutes.
(§1) The enzyme activity (with or without compound) is calculated by the reaction rate and represented by the optical density change (ΔOD) per minute. Percent stimulation of glycogen synthase activity by a compound at various concentrations is calculated by the following formula: % stimulation=100*Rs/Rt,
where Rs is the reaction rate of the enzyme in the presence of compound and Rt is the reaction rate of the enzyme in the absence of compound.
SC2.0 is defined as the compound concentration that is needed to stimulate 200% of the enzyme activity.
Glycogen Synthase (GS) Assay
The following tests were carried out in order to determine the activity of the compounds of formula (I).
Twelve μl per well of substrate solution containing glycogen (4.32 mg/ml), 21.6 mM UDP-glucose, 21.6 mM phospho(enol)pyruvate and 2.7 mM NADH in 30 mM glycylglycine, pH 7.3 buffer was added into a polystyrene 384-well assay plate (BD Biosciences). Compound solution (8 μl/well) at various concentrations (0-57 μM) in 30 mM glycylglycine, pH 7.3, 40 mM KCl, 20 mM MgCl2 plus 9.2% DMSO were added to the assay plate (columns 5-24). Enzyme solution (12 μl/well) containing glycogen synthase (16.88 μg/ml), pyruvate kinase (0.27 mg/ml), lactate dehydrogenase (0.27 mg/ml) in 50 mM Tris-HCl, pH 8.0, 27 mM DTT and bovine serum albumin (BSA, 0.2 mg/ml) was added to the assay plate (columns 3-24). As a blank control, enzyme solution without glycogen synthase was added into the top half wells of columns 1-2. To the bottom half wells of columns 1-2 were added a known activator, glucose 6-phosphate (18.9 mM) in addition to the enzyme solution. The reaction mixture was incubated at 37° C. The assay plate was then read for absorbance at 340 nm on a Tecan Ultra reader every 3 minutes up to a total of 30 minutes.
as §1, with “was” for “is”, “stimulation=100*Rs/Rt, […]” for “stimulation=100*Rs/Rt,”

In order of falling SC2.0:
1. O=C(NC1(C(=O)O)CCCC1)c1ccc(COc2ccc(-c3ccccc3)cc2)o1 [Example 34, 1-{[5-(Biphenyl-4-yloxymethyl)-furan-2-carbonyl]-amino}-cyclopentane carboxylic acid]  16.3 µM
2. O=C(O)c1ccc(COc2cccc(-c3ccccc3)c2)o1 [Example 9, 5-(Biphenyl-3-yloxymethyl)-furan-2-carboxylic acid]  14.9 µM
3. O=C(O)c1csc(COc2ccc(-c3ccccc3)cc2Cl)n1 [Example 22, 2-(3-Chloro-biphenyl-4-yloxymethyl)-thiazole-4-carboxylic acid]  14.9 µM
4. O=C(O)c1ccc(COc2ccc(-c3ccccc3)cc2)s1 [5-(Biphenyl-4-yloxymethyl)-thiophene-2-carboxylic acid]  12.7 µM
5. O=C(O)c1ccccc1COc1ccc(-c2ccccc2)cc1Cl [Example 15, 2-(3-Chloro-biphenyl-4-yloxymethyl)-benzoic acid]  10.3 µM
6. COc1ccc(-c2ccc(OCc3cccc(C(=O)O)c3)cc2)cc1 [Example 7, 3-(4′-Methoxy-biphenyl-4-yloxymethyl)-benzoic acid]  9.6 µM
7. O=C(O)c1cccc(COc2ccc(-c3ccc(Br)cc3)cc2)c1 [Example 4, 3-(4′-Bromo-biphenyl-4-yloxymethyl)-benzoic acid]  3.8 µM
8. O=C(O)c1csc(COc2ccc(-c3ccc(Cl)cc3)cc2)n1 [Example 26, 2-(4′-Chloro-biphenyl-4-yloxymethyl)-thiazole-4-carboxylic acid]  3.1 µM
9. O=C(O)[C@H]1CCCN1C(=O)c1ccc(COc2ccc(-c3ccccc3)cc2)o1 [1-[5-(Biphenyl-4-yloxymethyl)-furan-2-carbonyl]-L-pyrrolidine-2-carboxylic acid]  1.4 µM
10. O=C(O)c1ccc(COc2ccc(-c3ccc(Cl)cc3)cc2)o1 [Example 12, 5-(4′-Chloro-biphenyl-4-yloxymethyl)-furan-2-carboxylic acid]  0.8 µM
